In patent US20210070779A1, “BORON-CONTAINING SMALL MOLECULES AS ANTI-INFLAMMATORY AGENTS” (Anacor Pharmaceuticals, Inc., priority 2013, published 2021):
Like-named read-outs stand apart in the source and are kept apart here.

Target: Human PDE4 (PDE4B2 truncated catalytic domain) (Homo sapiens, UniProt Q07343)
Test: Measurement of Phosphodiesterase 4 (PDE4) inhibition, zinc and barium precipitation method
Type: biochemical
Protocol: Measurement of Phosphodiesterase 4 (PDE4) Inhibition
Human PDE4 enzymatic activity was assayed using the zinc and barium precipitation method of Saldou, N. et al (1998: Cell Signal, vol 10, No. 6, pp 427-440). The assay was performed in 96-well v-bottom plates (BrandPlates, Wertheim, Germany). PDE4B2 truncated is the catalytic domain including the UCR2 and a portion of the UCR1 domain of PDE4B2 (23.4 mg/mL) from Proteros Biostructures. Final concentration of enzyme in the assay was 0.3 pM. Stocks of the tested compounds were prepared in 100% DMSO at a concentration of 40 mM. The 100-μL reaction volume consisted of 45 mM Tris-HCl, pH 7.5, 12.5 mM MgSO4, 0.3 μM […] (Sigma, St Louis, Mo.) supplemented with 0.2 μM ^3H-cAMP (Perkin Elmer, Waltham, Mass.). Compounds were pre-incubated with enzyme at room temperature for 20 min prior to initiating the reaction by adding substrate (cAMP supplemented with ^3H-cAMP). After incubation at 30° C. for 6 minutes, the reaction was stopped by the addition of 50 μL fresh made 21.5 mM ZnSO4.7H2O (Alfa Aesar, Ward Hill, Mass.) containing 5 mM AMP as a co-precipitant. Total AMP was precipitated by the addition of 50 μL 17.5 mM Ba(OH)2, prepared fresh daily in water. The precipitate was transferred and collected by filtration onto a 96-well GF/B plate (Millipore, Ireland). The plates were washed five times with cold wash solution (1 mM NaOH, 100 mM NaCl) and dried at 65° C. The bottoms of plates were sealed with clear tapes (Millipore Co-operation, Billerica, Mass.) and 40 μL of scintillation cocktail (Perkin Elmer Waltham, Mass.). The plates were top sealed and radioactivity was measured with an Elmer Packard TopCount scintillation counter.

[1] = PDE4B2 truncated, 0.3 pM enzyme, 3H-cAMP substrate, 30° C. 6 minutes, read-out: PDE4 IC50

Chain of Human PDE4 (PDE4B2 truncated catalytic domain) (Q07343 212-659): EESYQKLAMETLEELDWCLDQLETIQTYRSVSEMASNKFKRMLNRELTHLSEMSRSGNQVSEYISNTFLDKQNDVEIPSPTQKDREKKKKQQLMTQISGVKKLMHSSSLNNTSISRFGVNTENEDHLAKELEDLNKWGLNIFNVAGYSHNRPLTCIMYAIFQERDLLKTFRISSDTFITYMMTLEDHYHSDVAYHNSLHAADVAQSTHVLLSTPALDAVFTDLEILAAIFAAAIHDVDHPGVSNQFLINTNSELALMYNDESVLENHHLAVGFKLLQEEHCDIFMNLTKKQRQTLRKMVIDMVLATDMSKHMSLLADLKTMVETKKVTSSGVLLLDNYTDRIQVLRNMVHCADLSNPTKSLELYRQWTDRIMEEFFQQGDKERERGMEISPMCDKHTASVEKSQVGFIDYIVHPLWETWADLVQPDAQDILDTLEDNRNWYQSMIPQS

SMILES	IC50 [1]	IC50
N#Cc1ccc(C(O)c2ccc3c(c2)COB3O)cc1 (stereo not shown) [B, 4-(hydroxy(1-hydroxy-1,3-dihydrobenzo[c][1,2]oxaborol-5-yl)methyl)benzonitrile]	1730 nM	
N#Cc1ccc(Cc2ccc3c(c2)COB3O)cc1 [C, 4-((1-hydroxy-1,3-dihydrobenzo[c][1,2]oxaborol-5-yl)methyl)benzonitrile]	1770 nM	
N#Cc1ccc([S+]([O-])c2ccc3c(c2)COB3O)cc1 (stereo not shown) [D, 4-(1-hydroxy-1,3-dihydrobenzo[c][1,2]oxaborol-5-ylsulfinyl)benzonitrile]	62 nM	
N#Cc1ccc(C(=O)c2ccc3c(c2)COB3O)cc1 [A, 4-(1-hydroxy-1,3-dihydrobenzo[c][1,2]oxaborole-5-carbonyl)benzonitrile]		504 nM
